Experimental data as given in US6174875A, “Benzoquinoid ansamycins for the treatment of cardiac arrest and stroke” (priority 1999, dated 2001).

Columns and labels:
HT22 cells = assay: Internucleosomal DNA cleavage (apoptosis) in HT22 cells; assay type: cell-based, mouse
Procedure: HT22 cells were treated with 5 mM glutamate (Glu) for 20 hours. […] Controls included HT22 cells not treated with Glu or GA and cells treated with GA alone.

[1] = tested on: Male Sprague-Dawley rats (asphyxial cardiac arrest); assay type: in vivo, rat
From the text: In rats, asphyxia produces circulatory arrest that can be reversed by mechanical ventilation and external chest compression (Katz et al. (1995) J. Cereb. Blood Flow Metab. 15:1032). […] Meaningful behavioral scores that predictable detect neurological deficits which closely mimic the types of deficits observed in patients that recover from cardiac arrest have been developed. Animal protocols were approved by the Institutional Animal Care and Use Committee of the University of Pittsburgh. Male Sprague-Dawley rats weighing 318±17 gm (Harlan, Indianapolis, Ind.) were anesthetized with 0.8% halothane in oxygen, endotracheally intubated using a 14 gauge angiocath, and mechanically ventilated using a Harvard rodent ventilator (0.9 cc/kg, 40 respirations/min). Blood pressure and arterial blood gases are monitored via a femoral arterial catheter (PE-50 tubing, IntraMedic), and drugs administered via a femoral venous catheter (PE-50). Tympanic temperature was maintained at 36.9±0.2° C. by manipulating an overhead 100 W lamp. After chemical paralysis with 2 mg/kg vecuronium and reducing the fraction of inspired oxygen to 0.21 (room air) mechanical ventilation was discontinued at end-expiration. Cardiac arrest (mean arterial pressure <10 mmHg) reliably occurred within 180 seconds. […]

[2] = tested on: hsp90-associated signaling molecules; conditions: other cultured cells; cited from earlier work

With `COC1=C2C[C@@H](C)C[C@H](OC)[C@H](O)[C@@H](C)/C=C(\C)[C@H](OC(N)=O)[C@@H](OC)/C=C\C=C(/C)C(=O)NC(=CC1=O)C2=O` [geldanamycin] the “internucleosomal DNA cleavage, GA alone” value (HT22 cells; 0.1 μg/ml GA alone) was “not subjected to this type of characteristic genomic DNA cleavage”, the “block of glutamate-induced internucleosomal DNA cleavage” value (HT22 cells; 0.1 μg/ml GA, 5 mM glutamate) was “able to block glutamate-induced internucleosomal DNA cleavage” and the “neurological deficit scores vs vehicle” value ([1]; GA 1.0 mg/kg iv after return of spontaneous circulation, n=5, scored at 24, 48, 72 hours, Kruskal-Wallace Chi-square=6.54, p<0.05 (FIG. 4)) was “lower in rats treated with GA (n=5) than in rats treated with vehicle”. The “physiological variables during the resuscitation phase vs vehicle” value ([1]; GA 1.0 mg/kg iv, rats) was “did not differ between groups” and the “degradation of hsp90-associated signaling molecules” value [2] was “selective degradation of hsp90-associated signaling molecules”.
